Results published in publication PMC9061999, “Application of the Adverse Outcome Pathway Concept to In Vitro Nephrotoxicity Assessment: Kidney Injury due to Receptor-Mediated Endocytosis and Lysosomal Overload as a Case Study” (Frontiers in Toxicology, 2022).

What was measured:
NRK-52E cells = assay: Cathepsin D immunofluorescence (KE2, disruption of lysosomes); assay type: cell-based, rat; details: for MOE, lowest across KEs: in vitro PODs in NRK-52E vs rat plasma concentrations after human equivalent or nephrotoxic doses
Experimental: (§1) For immunocytochemistry experiments, cells were seeded into 8-well chamber slides (Ibidi) at a density of 140 cells per µL in 300 µL growth medium and were allowed to grow for 48 h (NRK-52E) or 10 d (RPTEC/TERT1) respectively. For treatment, stock solutions (1,000 µM) of compounds dissolved in growth medium were freshly prepared and serial dilutions were made before exposure of cells for 24 h. After treatment, cells were washed twice with 150 µL PBS and fixed with 150 µL 4% paraformaldehyde in 1 x PBS for 10 min at room temperature. After fixation, cells were washed 10 min with 150 µL PBS on an orbital shaker followed by permeabilization with 150 µL 0.2% Triton X-100 in 1 x PBS for 5 min at room temperature on an orbital shaker. The permeabilized cells were washed twice with 1 x PBS (150 µL) for 10 min at room temperature on an orbital shaker and then incubated with 150 µL 5% BSA dissolved in 1 x PBS for 1 h at room temperature to block unspecific binding sites. After blocking, 100 µL primary antibody diluted 1:100 in 1% BSA in 1 x PBS were directly pipetted onto the cells and incubated overnight at 4°C. The following antibodies were employed for NRK-52E cells: Anti-LAMP-1 monoclonal IgG1 kappa mouse antibody (Santa Cruz; sc-20011), anti-Cathepsin D mouse monoclonal IgG2 kappa antibody (Santa Cruz; sc-377124); for RPTEC/TERT1 cells: Anti-LAMP-2 monoclonal mouse antibody (Santa Cruz; sc-18822), anti-Cathepsin D mouse monoclonal IgG2b kappa (Novus Biologicals; NBP1-04278); for both cell lines anti-megalin mouse monoclonal IgG1 antibody (Santa Cruz, sc-515772).
After incubation with primary antibody, cells were washed three times for 15 min with 0.2% Tween in 1 x PBS (150 µL) on an orbital shaker. Cells were incubated for 1 h at room temperature with 100 µL CFL 488-conjugated mouse IgG kappa binding protein (1:50) (m-IgGκ BP-CFL 488; Santa Cruz, sc-516176). After incubation the cells were washed three times for 15 min with 0.2% Tween in 1 x PBS on an orbital shaker and once with 150 µL sterile water. […] To preserve fluorescence 50–100 µL DAPI mounting medium (Vectashield®; Vectorlab, Biozol) was added to the cells and chamber slides were stored at 4°C in the dark until image acquisition.
Images were taken with a TCS SP5 II confocal microscope with an HCX PL APO lambda blue 63.0 × 1.40 OIL UV objective (Leica Microsystems, Wetzlar, GER) (n = 10 cells/treatment group). […] Before quantification, images were blinded and randomized. Quantification of fluorescence intensity was performed using NIH Image® software. […] The mean values of the pixel intensities were automatically calculated by the software and imported in Excel for further processing.

RPTEC/TERT1 cells [1] = assay: CellTiter-Glo cytotoxicity assay (KE3); assay type: cell-based, human; details: for BMC10, KE3: in vitro POD from KE dose-response, cell viability CellTiter-Glo, RPTEC/TERT1, 24 h treatment, n = 3; for MOE, KE3: margin of exposure: BMC10 in RPTEC/TERT1 vs human plasma/serum concentration (cmax or css)
Experimental: Cells were plated into 96-well tissue culture plates (10,000 cells per well) and were allowed to grow for 48 h (NRK-52E) respectively 10 d (RPTEC/TERT1) prior to 24 h treatment with model stressors. Stock solution for each compound (2000 µM) was prepared in growth medium and serial dilutions (1:1) were made before each experiment. At the end of the 24 h treatment, cell viability was measured using the CellTiter-Glo® assay (Promega). CellTiter-Glo® reagents and buffer were mixed under light-protected conditions and 100 µL CellTiter-Glo® solution was added directly to each well followed by 2 min incubation on an orbital shaker and 10 min incubation at room temperature in the dark to stabilize the luminescence signal. The suspension was mixed via pipetting and 50 µL were transferred into white 96-well plates (PerkinElmer Inc.). The luminescence signal was measured on a multiplate reader (Mithras LB 940; Berthold). Each assay was performed in three independent experiments carried out in triplicates.

RPTEC/TERT1 cells [2] = assay: LAMP-2 immunofluorescence (KE1, disturbance of lysosomal function); assay type: cell-based, human; details: for BMC10, KE1: in vitro POD from KE dose-response, LAMP-2 intensity, RPTEC/TERT1, 24 h treatment, n = 3 independent experiments; for MOE, lowest across KEs: in vitro PODs in RPTEC/TERT1 vs human plasma concentrations at therapeutic doses; for MOE, KE1: margin of exposure: BMC10 in RPTEC/TERT1 vs human plasma/serum concentration (cmax or css)
Experimental: as §1
After incubation with primary antibody, cells were washed three times for 15 min with 0.2% Tween in 1 x PBS (150 µL) on an orbital shaker. Cells were incubated for 1 h at room temperature with 100 µL CFL 488-conjugated mouse IgG kappa binding protein (1:50) (m-IgGκ BP-CFL 488; Santa Cruz, sc-516176). After incubation the cells were washed three times for 15 min with 0.2% Tween in 1 x PBS on an orbital shaker and once with 150 µL sterile water. Phalloidin-tetramethylrhodamine B isothiocyanate (TRITC) was used to stain the cytoskeleton and was diluted in 100% methanol to a stock concentration of 0.1 mg/ml and further diluted in 1 x PBS to a working concentration of 0.095 µM. After cells were washed once with 1 x PBS for 10 min at room temperature 150 µL phalloidin-TRITC working solution was added and the cells were incubated on an orbital shaker at room temperature for 60–90 min. After incubation, phalloidin-TRITC solution was aspirated, and the cells were washed once with 1 x PBS. Chamber slides were allowed to dry for 15 min at room temperature. To preserve fluorescence 50–100 µL DAPI mounting medium (Vectashield®; Vectorlab, Biozol) was added to the cells and chamber slides were stored at 4°C in the dark until image acquisition.
Images were taken with a TCS SP5 II confocal microscope with an HCX PL APO lambda blue 63.0 × 1.40 OIL UV objective (Leica Microsystems, Wetzlar, GER) (n = 10 cells/treatment group). The maximum excitation and emission settings for image acquisition were the following: Vectashield® antifade mounting medium with DAPI (λex 360 nm & λem 460 nm), for CFL 488-conjugated mouse IgG kappa binding protein (λex 490 nm & λem 525 nm) and phalloidin-TRITC (λex 545 nm & λem 573 nm). Before quantification, images were blinded and randomized. Quantification of fluorescence intensity was performed using NIH Image® software. Using the tool “Plot Profile” we generated a two-dimensional graph of the intensity of pixels along a reference line (6.35 µm) drawn across the cytoplasm of cells. The mean values of the pixel intensities were automatically calculated by the software and imported in Excel for further processing.

| Substance | MOE, lowest across KEs (NRK-52E cells) | BMC10, KE3 (RPTEC/TERT1 cells [1]) | MOE, KE3 (RPTEC/TERT1 cells [1]) | BMC10, KE1 (RPTEC/TERT1 cells [2]) | MOE, lowest across KEs (RPTEC/TERT1 cells [2]) | MOE, KE1 (RPTEC/TERT1 cells [2]) | BMC10, KE2 (NRK-52E cells; in vitro POD from KE dose-response, cathepsin D intensity, NRK-52E, 24 h treatment, n = 3) | MOE, KE2 (NRK-52E cells; margin of exposure: BMC10 in NRK-52E vs rat plasma/serum concentration (cmax or css)) |
| --- | --- | --- | --- | --- | --- | --- | --- | --- |
| Colistin | 1.8 | 23.5 µM | 2.9 – 56.0 | 4.3 µM | 0.5 | 0.5 – 10.2 |  |  |
| Polymyxin B | 0.8 | 14.2 µM | 3.5 – 24.9 | 4.2 µM | 1 | 1.0 - 7.4 | 5.8 µM | 0.8 |
